Usually IC50 stands for the concentration needed to halve the response being measured. A lower IC50 goes with inhibition by little substance. In general, GI50 refers to the concentration at which growth is held to half of that of the control.

From ChEMBL document CHEMBL3822358 (J Med Chem, 2016) come the findings set out here.

Assay [1] has as its target ALK tyrosine kinase receptor (Homo sapiens, UniProt Q9UM73).
Description: Inhibition of human ALK using poly[Glu:Tyr] (4:1) as substrate and [gamma-33P]ATP measured after 1 hr
The target in assay [2] is Insulin-like growth factor 1 receptor (Homo sapiens, UniProt P08069).
The target of assay [3] is Insulin receptor (Homo sapiens, UniProt P06213).
Description: Inhibition of human InsR using myelin basic protein as substrate and [gamma-33P]ATP measured after 1 hr
Assay [4] in a line: cells. As to conditions: Homo sapiens, U-937, 72 h.
Description: Antiproliferative activity against human ALK-negative U937 cells assessed as reduction in cell viability measured after 72 hrs by CellTiter 96 aqueous one solution cell proliferation assay
Assay [5] is described as follows: cells. As to conditions: Homo sapiens, KARPAS-299, 72 h.
Description: Antiproliferative activity against human ALK-positive KARPAS299 cells assessed as reduction in cell viability measured after 72 hrs by CellTiter 96 aqueous one solution cell proliferation assay

Sequence of ALK tyrosine kinase receptor (Q9UM73 whole entry): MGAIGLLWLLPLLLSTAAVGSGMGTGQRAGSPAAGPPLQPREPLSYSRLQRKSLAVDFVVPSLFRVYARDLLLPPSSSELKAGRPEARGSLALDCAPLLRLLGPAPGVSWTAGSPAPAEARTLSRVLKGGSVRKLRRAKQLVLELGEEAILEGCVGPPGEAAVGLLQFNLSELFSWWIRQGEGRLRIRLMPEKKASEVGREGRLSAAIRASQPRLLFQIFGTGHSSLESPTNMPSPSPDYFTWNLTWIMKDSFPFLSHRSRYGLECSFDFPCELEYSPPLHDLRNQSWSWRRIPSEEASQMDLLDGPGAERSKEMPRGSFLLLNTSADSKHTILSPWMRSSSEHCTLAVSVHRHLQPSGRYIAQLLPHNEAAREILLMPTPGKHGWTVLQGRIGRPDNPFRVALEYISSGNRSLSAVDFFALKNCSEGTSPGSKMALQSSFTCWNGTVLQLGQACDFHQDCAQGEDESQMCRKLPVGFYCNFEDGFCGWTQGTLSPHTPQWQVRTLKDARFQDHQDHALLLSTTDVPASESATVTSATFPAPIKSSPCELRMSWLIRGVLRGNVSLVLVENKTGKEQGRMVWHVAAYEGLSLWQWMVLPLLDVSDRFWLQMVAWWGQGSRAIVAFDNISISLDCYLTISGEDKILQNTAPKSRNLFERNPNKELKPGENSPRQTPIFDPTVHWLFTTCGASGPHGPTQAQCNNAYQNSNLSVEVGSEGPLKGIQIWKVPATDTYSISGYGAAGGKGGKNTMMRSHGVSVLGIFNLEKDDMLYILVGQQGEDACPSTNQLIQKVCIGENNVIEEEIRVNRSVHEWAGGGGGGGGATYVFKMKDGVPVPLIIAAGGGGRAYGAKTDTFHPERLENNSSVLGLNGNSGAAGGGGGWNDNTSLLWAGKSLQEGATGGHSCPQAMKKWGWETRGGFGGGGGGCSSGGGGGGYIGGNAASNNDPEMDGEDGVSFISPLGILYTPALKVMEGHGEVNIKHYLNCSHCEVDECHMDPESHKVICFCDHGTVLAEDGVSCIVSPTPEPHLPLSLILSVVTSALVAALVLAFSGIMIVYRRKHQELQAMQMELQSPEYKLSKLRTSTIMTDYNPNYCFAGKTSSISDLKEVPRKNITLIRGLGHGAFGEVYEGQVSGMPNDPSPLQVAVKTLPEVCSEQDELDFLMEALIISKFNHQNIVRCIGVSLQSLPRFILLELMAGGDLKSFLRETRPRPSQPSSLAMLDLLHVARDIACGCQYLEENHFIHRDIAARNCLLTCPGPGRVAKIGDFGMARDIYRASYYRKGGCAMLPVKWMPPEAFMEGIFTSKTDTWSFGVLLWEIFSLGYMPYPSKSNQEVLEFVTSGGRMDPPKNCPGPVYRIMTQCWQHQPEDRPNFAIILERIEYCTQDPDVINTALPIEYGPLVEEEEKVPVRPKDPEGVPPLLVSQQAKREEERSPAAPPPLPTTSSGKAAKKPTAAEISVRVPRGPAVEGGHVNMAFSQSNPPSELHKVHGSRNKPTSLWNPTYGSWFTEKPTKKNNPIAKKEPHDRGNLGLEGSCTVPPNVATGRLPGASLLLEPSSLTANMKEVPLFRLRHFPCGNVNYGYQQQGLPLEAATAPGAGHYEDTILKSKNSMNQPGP
Sequence of Insulin receptor (P06213 28-758 limits assumed): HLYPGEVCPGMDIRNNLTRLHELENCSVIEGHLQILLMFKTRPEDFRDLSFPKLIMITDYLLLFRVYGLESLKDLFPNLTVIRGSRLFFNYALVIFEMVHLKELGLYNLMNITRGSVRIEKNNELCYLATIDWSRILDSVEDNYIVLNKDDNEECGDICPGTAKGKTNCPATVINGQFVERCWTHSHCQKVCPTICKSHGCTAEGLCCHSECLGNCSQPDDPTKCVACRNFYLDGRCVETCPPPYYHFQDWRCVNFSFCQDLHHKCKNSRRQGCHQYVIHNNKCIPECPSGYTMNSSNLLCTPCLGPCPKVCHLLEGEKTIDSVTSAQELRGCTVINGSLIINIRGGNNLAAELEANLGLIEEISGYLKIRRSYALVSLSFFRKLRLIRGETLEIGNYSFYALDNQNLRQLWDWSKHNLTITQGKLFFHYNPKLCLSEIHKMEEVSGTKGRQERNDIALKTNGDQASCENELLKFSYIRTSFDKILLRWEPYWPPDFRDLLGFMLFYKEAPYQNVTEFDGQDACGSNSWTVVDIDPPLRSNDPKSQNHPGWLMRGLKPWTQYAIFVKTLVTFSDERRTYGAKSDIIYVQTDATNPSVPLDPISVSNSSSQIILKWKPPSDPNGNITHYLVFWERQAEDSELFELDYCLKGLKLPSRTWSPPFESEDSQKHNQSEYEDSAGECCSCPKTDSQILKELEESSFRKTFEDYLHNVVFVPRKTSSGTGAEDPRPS
Sequence of Insulin receptor (P06213 763-1382 limits assumed): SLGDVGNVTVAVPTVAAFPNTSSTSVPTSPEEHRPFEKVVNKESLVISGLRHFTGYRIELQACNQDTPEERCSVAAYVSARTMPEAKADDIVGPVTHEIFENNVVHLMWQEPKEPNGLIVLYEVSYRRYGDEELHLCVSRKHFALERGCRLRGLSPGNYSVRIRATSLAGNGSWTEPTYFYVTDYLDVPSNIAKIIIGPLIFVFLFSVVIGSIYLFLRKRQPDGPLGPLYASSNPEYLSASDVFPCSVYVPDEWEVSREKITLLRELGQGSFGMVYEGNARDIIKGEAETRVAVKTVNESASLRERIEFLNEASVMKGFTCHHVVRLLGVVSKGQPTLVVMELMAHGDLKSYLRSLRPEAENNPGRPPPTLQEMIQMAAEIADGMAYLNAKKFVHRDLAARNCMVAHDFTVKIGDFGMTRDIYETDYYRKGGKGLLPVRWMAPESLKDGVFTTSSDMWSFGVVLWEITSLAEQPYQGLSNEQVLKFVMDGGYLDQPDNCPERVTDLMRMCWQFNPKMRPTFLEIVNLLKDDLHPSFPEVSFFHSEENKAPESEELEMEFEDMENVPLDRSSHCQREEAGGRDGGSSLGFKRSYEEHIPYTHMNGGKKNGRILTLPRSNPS
Sequence of Insulin-like growth factor 1 receptor (P08069 31-736 limits assumed): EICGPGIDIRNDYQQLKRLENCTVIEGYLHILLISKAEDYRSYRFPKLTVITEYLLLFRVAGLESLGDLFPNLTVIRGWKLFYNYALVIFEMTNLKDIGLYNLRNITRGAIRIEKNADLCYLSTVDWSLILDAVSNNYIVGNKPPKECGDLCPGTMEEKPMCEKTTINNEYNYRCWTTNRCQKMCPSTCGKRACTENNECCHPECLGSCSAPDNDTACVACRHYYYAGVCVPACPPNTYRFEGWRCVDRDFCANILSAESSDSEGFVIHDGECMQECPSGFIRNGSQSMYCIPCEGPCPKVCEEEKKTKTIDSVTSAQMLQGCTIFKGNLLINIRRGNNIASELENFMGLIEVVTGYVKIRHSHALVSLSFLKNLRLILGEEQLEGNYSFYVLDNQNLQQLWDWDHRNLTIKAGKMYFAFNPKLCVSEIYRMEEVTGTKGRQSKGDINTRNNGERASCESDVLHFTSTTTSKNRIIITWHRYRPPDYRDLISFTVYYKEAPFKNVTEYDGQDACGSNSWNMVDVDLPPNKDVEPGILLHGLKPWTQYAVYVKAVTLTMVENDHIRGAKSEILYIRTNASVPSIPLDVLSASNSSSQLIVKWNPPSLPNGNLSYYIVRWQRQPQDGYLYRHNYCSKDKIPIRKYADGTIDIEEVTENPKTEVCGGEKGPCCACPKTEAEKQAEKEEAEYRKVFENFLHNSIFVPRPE
Sequence of Insulin-like growth factor 1 receptor (P08069 741-1367 limits assumed): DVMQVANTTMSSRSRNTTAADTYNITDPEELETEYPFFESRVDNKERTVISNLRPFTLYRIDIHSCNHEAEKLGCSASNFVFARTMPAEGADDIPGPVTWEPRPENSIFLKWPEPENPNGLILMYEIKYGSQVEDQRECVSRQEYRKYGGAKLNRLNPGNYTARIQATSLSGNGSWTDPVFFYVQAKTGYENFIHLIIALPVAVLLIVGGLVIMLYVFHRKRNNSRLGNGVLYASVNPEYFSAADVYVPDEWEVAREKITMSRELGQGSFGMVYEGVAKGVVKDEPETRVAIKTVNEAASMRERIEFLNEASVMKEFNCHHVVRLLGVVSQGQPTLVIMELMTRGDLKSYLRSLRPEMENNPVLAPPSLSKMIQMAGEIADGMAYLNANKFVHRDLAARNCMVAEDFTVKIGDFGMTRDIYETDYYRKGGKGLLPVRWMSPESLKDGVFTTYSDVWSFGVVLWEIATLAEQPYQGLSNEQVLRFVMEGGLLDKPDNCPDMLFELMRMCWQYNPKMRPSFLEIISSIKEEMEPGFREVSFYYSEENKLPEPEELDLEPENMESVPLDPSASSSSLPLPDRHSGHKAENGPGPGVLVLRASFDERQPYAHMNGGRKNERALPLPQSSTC

Regarding `COc1cc(N2CCC(N3CCN(C)CC3)CC2)ccc1Nc1ncc(Cl)c(Nc2ccccc2C(C)=O)n1`, the IC50 worked out at 1.59 nM in assay [1], 1.33 nM in assay [2] and 2.16 nM in assay [3].

With `COc1cc(N2CCOCC2)ccc1Nc1ncc(Cl)c(Nc2ccccc2P(C)(C)=O)n1`, the IC50 in assay [1] was found to be 0.24 nM; in assay [2], 51.4 nM; in assay [4], 5990 nM; in assay [5], 77.4 nM; in assay [3], 399 nM.

Take `COc1cc(N2CCC(N3CCN(C)CC3)CC2)ccc1Nc1ncc(C2CC2)c(Nc2ccccc2P(C)(C)=O)n1`: the IC50 in assay [1] is 3.23 nM; in assay [2] it was 434 nM; in assay [4], 10600 nM; in assay [5], 278 nM; in assay [3], 367 nM.

Regarding `COc1cc(N2CCC(N3CCN(C)CC3)CC2)ccc1Nc1ncc(Cl)c(Nc2ccccc2S(=O)(=O)N(C)C)n1`, the figures for the IC50 in assay [1], in assay [2] and in assay [3] were 0.75 nM, 1.93 nM and 8.44 nM, respectively.

On to `COc1cc(N2CC[C@@H](N(C)C)C2)ccc1Nc1ncc(Cl)c(Nc2ccccc2P(C)(C)=O)n1`, for which the IC50 in assay [1] turned out to be 0.33 nM; in assay [2] it was 42.7 nM; in assay [4], 1170 nM; in assay [5], 66.9 nM; in assay [3], 489 nM.

As for `COc1cc(OC2CCN(C)C2)ccc1Nc1ncc(Cl)c(Nc2ccccc2P(C)(C)=O)n1` (stereo not given), the IC50 in assay [1] was 0.33 nM; in assay [2], 100 nM; in assay [4], 6330 nM; in assay [5], 65.1 nM; in assay [3], 397 nM.

`COc1cc(N2CCC(N3CCN(C)CC3)CC2)ccc1Nc1ncc(Cl)c(Nc2ccccc2C(=O)N(C)C)n1`: the figures for the IC50 in assay [1], in assay [2] and in assay [3] were 4.77 nM, 6.17 nM and 6.05 nM, respectively.

Regarding `COc1cc(N2CCC(N3CCCCC3)C2)ccc1Nc1ncc(Cl)c(Nc2ccccc2P(C)(C)=O)n1` (stereo not given), the IC50 in assay [1] came out at 0.88 nM; in assay [2], 81.5 nM; in assay [4], 2390 nM; in assay [5], 66.7 nM; in assay [3], 270 nM.

Turning to `COc1cc(P(C)(C)=O)ccc1Nc1ncc(Cl)c(Nc2ccccc2OC)n1`, the IC50 came to 0.96 nM in assay [1]; 22.1 nM in assay [2]; 2910 nM in assay [4]; 278 nM in assay [5]; 55.2 nM in assay [3].

Turning to `COc1cc(N2CCCN(C)CC2)ccc1Nc1ncc(Cl)c(Nc2ccccc2P(C)(C)=O)n1`, the IC50 in assay [1] amounted to 0.72 nM; in assay [2], 77.5 nM; in assay [4], 2970 nM; in assay [5] it was 53.9 nM; in assay [3] it was 339 nM.

Consider `COc1cc(P(C)(C)=O)ccc1Nc1ncc(Cl)c(Nc2ccccc2C(C)=O)n1`, for which the IC50 in assay [1] came out at 0.79 nM; in assay [2], 0.47 nM; in assay [4], 1420 nM; in assay [5], 251 nM; in assay [3] it was 0.88 nM.

On to `COc1cc(N2CCC(N3CCN(C)CC3)CC2)ccc1Nc1ncc(Cl)c(Nc2ccccc2S(C)(=O)=O)n1`, for which the values for the IC50 in assay [1], in assay [2] and in assay [3] were 0.59 nM, 0.76 nM and 5.1 nM, respectively.

`COc1cc(N2CCC(N3CCN(C)CC3)CC2)ccc1Nc1ncc(F)c(Nc2ccccc2P(C)(C)=O)n1`: the IC50 in assay [1] is 0.39 nM; in assay [2], 143 nM; in assay [4] it was 24200 nM; in assay [5], 147 nM; in assay [3], 1680 nM.

Turning to `COc1ccccc1Nc1ncc(Cl)c(Nc2ccccc2S(=O)(=O)C(C)C)n1`, the IC50 is 2.1 nM in assay [1], 20800 nM in assay [4] and 349 nM in assay [5].

For `COc1cc(N2CCC(N3CCN(C)CC3)CC2)ccc1Nc1ncc(Cl)c(Nc2ccccc2C(N)=O)n1`, the results for the IC50 in assay [1], in assay [2] and in assay [3] were 0.8 nM, 1.4 nM and 3.4 nM, respectively.

For `CCP(=O)(CC)c1ccccc1Nc1nc(Nc2ccc(N3CCC(N4CCN(C)CC4)CC3)cc2OC)ncc1Cl`, the IC50 in assay [1] was 0.12 nM; in assay [2], 45.1 nM; in assay [4], 3460 nM; in assay [5], 169 nM; in assay [3] it was 314 nM.

In the case of `COc1cc(P(C)(C)=O)ccc1Nc1ncc(Cl)c(Nc2ccccc2C(N)=O)n1`, the IC50 in assay [1] stood at 0.68 nM; in assay [2] it was 0.11 nM; in assay [4], 2370 nM; in assay [5], 613 nM; in assay [3], 14.1 nM.

On to `CC(C)Oc1cc(N2CCC(N3CCN(C)CC3)CC2)ccc1Nc1ncc(Cl)c(Nc2ccccc2P(C)(C)=O)n1`, for which the IC50 in assay [1] came out at 0.68 nM; in assay [2], 203 nM; in assay [4] it was 21500 nM; in assay [5], 54.6 nM; in assay [3], 700 nM.

With `COc1cc(N2CCC(N3CCN(C)CC3)CC2)c(C)cc1Nc1ncc(Cl)c(Nc2ccccc2P(C)(C)=O)n1`, the IC50 in assay [1] came to 0.86 nM; in assay [2] it was 27 nM; in assay [3], 171 nM. Besides, the concentration for 50% growth inhibition (GI50) is 1280 nM in assay [4] and 16 nM in assay [5].

In the case of `CCOc1cc(N2CCC(N3CCN(C)CC3)CC2)ccc1Nc1ncc(Cl)c(Nc2ccccc2P(C)(C)=O)n1`, the IC50 came out at 0.75 nM in assay [1]; 103 nM in assay [2]; 22400 nM in assay [4]; 58.9 nM in assay [5]; 253 nM in assay [3].

For `COc1cc(N2CCC(N3CCCN(C)CC3)CC2)ccc1Nc1ncc(Cl)c(Nc2ccccc2P(C)(C)=O)n1`, the IC50 in assay [1] came to 0.49 nM; in assay [2] it was 38.8 nM; in assay [4] it was 3390 nM; in assay [5] it was 105 nM; in assay [3], 162 nM.

`COc1cc(N2CCC(N3CCN(C)CC3)CC2)ccc1Nc1ncc(C(C)=O)c(Nc2ccccc2P(C)(C)=O)n1` registered an IC50 in assay [1] of 291 nM.

Regarding `COc1cc(P(C)(C)=O)ccc1Nc1ncc(Cl)c(Nc2ccccc2P(C)(C)=O)n1`, the IC50 in assay [1] stood at 1.06 nM; in assay [2], 139 nM; in assay [4], 13200 nM; in assay [5], 738 nM; in assay [3], 726 nM.

`COc1cc(P(C)(C)=O)ccc1Nc1ncc(Cl)c(Nc2ccccc2S(C)(=O)=O)n1`: the IC50 amounted to 0.33 nM in assay [1]; 0.4 nM in assay [2]; 4810 nM in assay [4]; 405 nM in assay [5]; 4.7 nM in assay [3].

For `COc1cc(N2CCC(N3CCN(C)CC3)CC2)ccc1Nc1ncc(Cl)c(Nc2ccccc2C(C)O)n1` (stereo not given), the IC50 amounted to 0.99 nM in assay [1], 36.1 nM in assay [2] and 43.2 nM in assay [3].

On to `COc1cc(N2CCN(C(C)=O)CC2)ccc1Nc1ncc(Cl)c(Nc2ccccc2P(C)(C)=O)n1`, for which the IC50 in assay [2] was 32.5 nM; in assay [4], 5450 nM; in assay [5], 79.9 nM; in assay [3], 103 nM.

For the molecule `CNC(=O)CN1CCN(c2ccc(Nc3ncc(Cl)c(Nc4ccccc4P(C)(C)=O)n3)c(OC)c2)CC1`, the IC50 worked out at 3.1 nM in assay [1]; 125 nM in assay [2]; 7000 nM in assay [4]; 270 nM in assay [5]; 459 nM in assay [3].

For the molecule `COc1cc(-c2cnn(C3CCNCC3)c2)ccc1Nc1ncc(Cl)c(Nc2ccccc2P(C)(C)=O)n1`, the half-inhibitory concentration (IC50) in assay [1] is 0.76 nM; in assay [2], 98.1 nM; in assay [4] it was 6230 nM; in assay [5], 322 nM; in assay [3], 702 nM.

For the molecule `COc1cc(N2CCC(N3CCN(C)CC3)CC2)ccc1Nc1ncc(Cl)c(Nc2ccccc2C#N)n1`, the IC50 in assay [1] came to 1.86 nM; in assay [2] it was 51.6 nM; in assay [3] it was 128 nM.

In the case of `COc1cc(N2CCC(N3CCN(C)CC3)CC2)c(F)cc1Nc1ncc(Cl)c(Nc2ccccc2P(C)(C)=O)n1`, the half-maximal inhibitory concentration (IC50) came to 1.03 nM in assay [1]; 59.5 nM in assay [2]; 1230 nM in assay [4]; 162 nM in assay [5]; 1180 nM in assay [3].

For the molecule `COc1cc(N2CCC(N3CCN(C)CC3)CC2)ccc1Nc1ncc(Cl)c(Nc2ccccc2OC)n1`, the IC50 is 1.88 nM in assay [1], 8.7 nM in assay [2], 851 nM in assay [5] and 26 nM in assay [3].

Take `COc1cc(N2CCC(N3CCN(C)CC3)CC2)ccc1Nc1ncc(C)c(Nc2ccccc2P(C)(C)=O)n1`: the IC50 in assay [1] was 0.42 nM; in assay [2], 128 nM; in assay [4] it was 5310 nM; in assay [5], 46.9 nM; in assay [3] it was 483 nM.

For the molecule `COc1cc(N2CCC(N(C)C)CC2)ccc1Nc1ncc(Cl)c(Nc2ccccc2P(C)(C)=O)n1`, the concentration for half-maximal inhibition (IC50) in assay [1] amounted to 0.07 nM; in assay [2] it was 3.2 nM; in assay [4] it was 1720 nM; in assay [5], 41.5 nM; in assay [3], 100 nM.

Turning to `COc1cc(P(C)(C)=O)ccc1Nc1ncc(Cl)c(Nc2ccccc2S(=O)(=O)C(C)C)n1`, the IC50 stood at 0.31 nM in assay [1]; 1.9 nM in assay [2]; 4840 nM in assay [4]; 20 nM in assay [5]; 9.9 nM in assay [3].

For the molecule `COc1cc(N2CCC(N3CCN(C)CC3)CC2)ccc1Nc1ncc(OC)c(Nc2ccccc2P(C)(C)=O)n1`, the IC50 was 1.19 nM in assay [1]; 117 nM in assay [2]; 13900 nM in assay [4]; 429 nM in assay [5]; 1680 nM in assay [3].

Consider `COc1cc(N2CCN(C3CCN(C)CC3)CC2)ccc1Nc1ncc(Cl)c(Nc2ccccc2P(C)(C)=O)n1`, for which the IC50 amounted to 0.28 nM in assay [1]; 43.3 nM in assay [2]; 4920 nM in assay [4]; 101 nM in assay [5]; 285 nM in assay [3].

In the case of `COc1cc(OCCCN2CCCC2)ccc1Nc1ncc(Cl)c(Nc2ccccc2P(C)(C)=O)n1`, the half-maximal inhibitory concentration (IC50) in assay [1] came out at 0.22 nM; in assay [2] it was 17.4 nM; in assay [4] it was 2310 nM; in assay [5] it was 113 nM; in assay [3], 284 nM.

For the molecule `COc1cc(N2CCC(N3CCN(C)CC3)CC2)ccc1Nc1ncc(Cl)c(Nc2ccccc2I)n1`, the IC50 was 1.36 nM in assay [1], 6.2 nM in assay [2], 705 nM in assay [5] and 13.7 nM in assay [3].

On to `COc1cc(N2CCC(N3CCN(C)CC3)CC2)ccc1Nc1ncc(Cl)c(Nc2ccccc2)n1`, for which the IC50 in assay [1] is 9.9 nM; in assay [2], 51.6 nM; in assay [3] it was 81.7 nM.
